Test results from EP2992880A1, “Use of heme oxygenase 1 inducers and cannabinoid 2 receptor or delta-opioid receptor agonists in inflammatory pain” (Fundació Institut de Recerca de l'Hospital de la Santa Creu …, priority 2014, dated 2016).

What was measured:
HO-1 = test: Western blot of HO-1 protein in dorsal root ganglia of CFA-injected mice; format: in vivo; conditions: CoPP treatment of CFA-injected mice; P < 0.001 (Fig. 6)
Procedure: (§1) Animals were sacrificed at 0 days (naive) and after CFA-injection by cervical dislocation. Tissues from the ipsilateral section of the dorsal root ganglia (L3 to L5) were removed immediately after killing, frozen in liquid nitrogen, and stored at -80°C until assay. Samples from five animals were pooled into one experimental sample to obtain enough protein levels for performing Western blot analysis. The HO-1, DOR and CB2R protein levels were analyzed by Western blot. […]
(§2) The proteins were electrophoretically transferred onto PVDF membrane for 120 min, blocked with PBS + 5% nonfat dry milk, and subsequently incubated overnight at 4°C with polyclonal rabbit anti-HO-1 (1:300, Stressgen, Ann Arbor, MI), anti-DOR (1:2500, Chemicon-Millipore) or anti-CB2R (1:500, Abcam, Cambridge, United Kingdom). The proteins were detected by a horseradish peroxidase-conjugated anti-rabbit secondary antibody (GE Healthcare, Little Chalfont, Buckinghamshire, United Kingdom) and visualized with chemiluminescence reagents (ECL kit; GE Healthcare) and by exposure onto hyperfilm (GE Healthcare). The intensity of blots was quantified by densitometry. […]
(§3) Finally, in another set of experiments we evaluated the effects of CoPP on the expression of HO-1, DOR and CB2R in the ipsilateral site of the dorsal root ganglia from CFA-injected mice, by using Western blot assay. […]

CFA-injected mice = test: von Frey filaments test (mechanical allodynia) in CFA-induced chronic inflammatory pain; format: in vivo, male C57BL/6 mice
Procedure: The experiments were performed in male C57BL/6 mice acquired from Harlan Laboratories (Barcelona, Spain). All mice weighing 21 to 25 g were housed under 12-h/12-h light/ dark conditions in a room with controlled temperature (22° C) and humidity (66%). Animals had free access to food and water and were used after a minimum of 7 days acclimatization to the housing conditions. All experiments were performed according with the Guide for the Care and Use of Laboratory Animals as adopted and promulgated by the U.S. National Institutes of Health and approved by the local Committee of Animal Use and Care of the Autonomous University of Barcelona. All efforts were made to minimize animal suffering and to reduce the number of animals used.
Chronic inflammatory pain was induced by the subplantar injection of 30 µl of CFA (Sigma) into the right hind paw under brief anesthetic conditions with isoflurane according to previous works (Leánez et al., Eur J Pharmacol, 2009, 602:41-49; Hervera et al., Naunyn Schmiedebergs Arch Pharmacol, 2009, 380:345-352). All experiments were performed at 10 days after CFA injection. At this time point, all of these animals developed a local inflammatory reaction, allodynia to mechanical stimuli and hyperalgesia to noxious thermal stimuli, as previously reported (Negrete et al., PLoS One, 2011, 6:e26688). The development of mechanical allodynia and thermal hyperalgesia was evaluated by using the von Frey filaments and plantar tests, respectively. All animals were tested in each paradigm before and at 10 days after CFA-injection.
Mechanical allodynia was quantified by measuring the hind paw withdrawal response to von Frey filament stimulation. In brief, animals were placed in methacrylate cylinders (20 cm high, 9 cm diameter; Servei Estació, Barcelona, Spain) with a wire grid bottom through which the von Frey filaments (North Coast Medical, Inc., San Jose, CA) with a bending force in the range of 0.008-3.5 g were applied by using a modified version of the up-down paradigm, as previously reported by Chaplan et al. (J Neurosci Methods, 1994, 53:55-63). The filament of 0.4 g was used first and the 3.0 g filament was used as a cut-off. Then, the strength of the next filament was decreased or increased according to the response. The threshold of response was calculated from the sequence of filament strength used during the up-down procedure by using an Excel program (Microsoft Iberia SRL, Barcelona, Spain) that includes curve fitting of the data. Clear paw withdrawal, shaking, or licking of the paw was considered as a nociceptive-like response. Both ipsilateral and contralateral hind paws were tested. Animals were allowed to habituate for 1 h before testing in order to allow an appropriate behavioral immobility.
In a first set of experiments, we assessed the expression of inflammatory pain induced by the subplantar administration of CFA as previously used (Leánez et al., Eur J Pharmacol, 2009, 602:41-49). After the habituation period, baseline responses were established in the following sequence: von Frey filaments and plantar test. After baseline measurements, inflammatory pain was induced and animals were again tested in each paradigm at day 10 after CFA injection by using the same sequence as for baseline responses. The contralateral paws were used as controls (n = 6 animals per group).
In a second set of experiments, we evaluated the mechanical antiallodynic and thermal antihyperalgesic effects of the subplantar administration of different doses of a specific DOR (DPDPE) or CB2R (JWH-015) agonist and their respective vehicles in the contralateral and ipsilateral paw of CFA-injected animals (n = 6 animals per group). […]

[1] = inflammatory pain; cited from earlier work
CB2R = test: Western blot of CB2R protein in dorsal root ganglia of CFA-injected mice; format: in vivo; conditions: CoPP treatment of CFA-injected mice (Fig. 8)
Procedure: as §1, §2, §3

Substance: cobalt (III) protoporphyrin IX chloride [CoPP]
- dorsal root ganglia expression of HO-1 (HO-1): significantly increased
- effect of CoPP treatment on the mechanical antiallodynic effects of DPDPE (CFA-injected mice; CoPP 10 mg/kg intraperitoneal, DPDPE 50 µg subplantar (Fig. 3A)): did not alter
- effect of CoPP treatment on the antiallodynic effects of JWH-015 (CFA-injected mice; CoPP 10 mg/kg intraperitoneal, JWH-015 30 µg subplantar, P < 0.001 (Fig. 4A)): significantly enhanced
- mechanical allodynia induced by peripheral inflammation (CFA-injected mice; CoPP alone 10 mg/kg intraperitoneal, ipsilateral paw, P < 0.001 versus vehicle (Fig. 3A)): significantly attenuated
- Mechanical allodynia, Experimental results (%) (maximal possible effect) (CFA-injected mice; Table 5, ipsilateral paw, CoPP 10 mg/kg intraperitoneal, DPDPE 50 µg subplantar, vehicle 5.8): 27.1%
- Mechanical allodynia, Experimental results (%) (maximal possible effect) (CFA-injected mice; Table 6, ipsilateral paw, CoPP 10 mg/kg intraperitoneal, JWH-015 30 µg subplantar, vehicle 4.1): 25.3%
- effect of CoPP on the antinociceptive effect of morphine [1]: increases
- peripheral expression of CB2R in the dorsal root ganglia from CFA-injected mice (CB2R): remains unaltered
